Test results: article PMC2225448 (Structure(London, England:1993), 2007)

Molecular target: T1, SOCS4/ElonginBC (Homo sapiens, UniProt Q15369+Q15370+Q8WXH5)
T1 construct: Human SOCS4 (amino acids 274–437); made in house; host or cells: E. coli BL21(DE3)
Assay: ITC binding of phosphotyrosine peptides to SOCS4/ElonginBC
Conditions: 50 mM HEPES pH 7.5, 150 mM NaCl, 1 mM DTT, 20°C; for KB × 10^5: association constant, ± curve fitting error

[1] = 0.3–0.4 mM peptide injected into 15 μM protein, single binding site model

T1 sequence (Q8WXH5 274-437): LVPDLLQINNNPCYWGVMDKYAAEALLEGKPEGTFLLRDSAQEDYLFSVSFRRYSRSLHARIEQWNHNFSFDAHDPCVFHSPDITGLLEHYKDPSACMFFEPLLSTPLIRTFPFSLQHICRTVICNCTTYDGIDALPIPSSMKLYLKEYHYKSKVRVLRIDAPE
T1 sequence (Q15369 17-112 partner limits assumed): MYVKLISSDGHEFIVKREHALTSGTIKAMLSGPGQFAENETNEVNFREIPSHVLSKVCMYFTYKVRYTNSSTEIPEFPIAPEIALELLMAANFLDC
T1 sequence (Q15370 whole entry partner, the tested form may be a part): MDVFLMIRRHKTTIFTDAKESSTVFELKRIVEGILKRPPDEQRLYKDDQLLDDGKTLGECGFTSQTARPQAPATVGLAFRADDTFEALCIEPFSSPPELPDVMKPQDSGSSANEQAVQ
Source text: Blank titrations were subtracted from binding data, and data were processed by using ORIGIN software provided with the instrument.

KB × 10^5	KD [1]	Kd [1] [µM]	Structure (SMILES)
1.30 ± 0.16 10^5 M^−1	–	–	CC[C@H](C)[C@H](NC(=O)[C@@H](NC(=O)[C@H](Cc1ccc(OP(=O)(O)O)cc1)NC(=O)[C@H](CCC(=O)O)NC(=O)[C@H](Cc1ccccc1)NC(=O)[C@H](CO)NC(=O)[C@H](C)N)[C@@H](C)O)C(=O)N[C@@H](CC(C)C)C(=O)N[C@@H](CC(=O)O)C(=O)N1CCC[C@H]1C(=O)N[C@@H](CO)C(=O)O [EpoR pY402]
3.43 ± 0.25 10^5 M^−1	low micromolar	< 3	CC(C)[C@H](NC(=O)[C@H](CCCCN)NC(=O)[C@H](Cc1ccc(O)cc1)NC(=O)[C@H](Cc1ccc(OP(=O)(O)O)cc1)NC(=O)[C@H](CCC(=O)O)NC(=O)[C@H](CCCCN)NC(=O)[C@H](CC(=O)O)NC(=O)[C@@H](N)CCC(N)=O)C(=O)N[C@@H](CCCCN)C(=O)N[C@@H](CCC(=O)O)C(=O)N1CCC[C@H]1C(=O)NCC(=O)O [JAK2 pY1007]
3.43 ± 0.24 10^5 M^−1	–	–	CC[C@H](C)[C@H](NC(=O)[C@H](Cc1ccc(O)cc1)NC(=O)[C@@H](NC(=O)[C@H](Cc1ccc(OP(=O)(O)O)cc1)NC(=O)[C@H](CC(N)=O)NC(=O)[C@H](CC(N)=O)NC(=O)CNC(=O)[C@@H](N)CC(N)=O)C(C)C)C(=O)N[C@@H](CC(=O)O)C(=O)N1CCC[C@H]1C(=O)N[C@H](C(=O)O)[C@@H](C)O [KIT pY568]
